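Tested at 5 concentrations; 48 h exposure; 96-well plates; endpoints linearly interpolated, else capped at highest concentration. TGI: concentration producing complete growth inhibition.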
How the values were obtained:
Test in all cases: DTP human tumour cell line panel, 48 h
MALME-3M melanoma = test system: MALME-3M melanoma
HOP-18 NSCLC = test system: HOP-18 NSCLC
IGROV1 ovarian = test system: IGROV1 ovarian
DMS 114 small cell lung = test system: DMS 114 small cell lung
LOX IMVI melanoma = test system: LOX IMVI melanoma
KM20L2 colon = test system: KM20L2 colon
A549 NSCLC = test system: A549 NSCLC
ACHN renal = test system: ACHN renal
HT29 colon = test system: HT29 colon
OVCAR-4 ovarian = test system: OVCAR-4 ovarian
CCRF-CEM leukemia = test system: CCRF-CEM leukemia
TK-10 renal = test system: TK-10 renal
A498 renal = test system: A498 renal
SK-MEL-28 melanoma = test system: SK-MEL-28 melanoma
HCT-15 colon = test system: HCT-15 colon
HOP-62 NSCLC = test system: HOP-62 NSCLC
NCI-H226 lung = test system: NCI-H226 lung
SK-MEL-5 melanoma = test system: SK-MEL-5 melanoma
SF-295 CNS = test system: SF-295 CNS
SN12C renal = test system: SN12C renal
HOP-92 NSCLC = test system: HOP-92 NSCLC
SR leukemia = test system: SR leukemia
M19-MEL melanoma = test system: M19-MEL melanoma
SNB-19 CNS = test system: SNB-19 CNS
EKVX NSCLC = test system: EKVX NSCLC
U251 CNS = test system: U251 CNS
NCI-H23 lung = test system: NCI-H23 lung
SNB-78 CNS = test system: SNB-78 CNS
786-0 renal = test system: 786-0 renal
M14 melanoma = test system: M14 melanoma
RXF-631 renal = test system: RXF-631 renal
SNB-75 CNS = test system: SNB-75 CNS
LXFL 529 NSCLC = test system: LXFL 529 NSCLC
UACC-62 melanoma = test system: UACC-62 melanoma
UACC-257 melanoma = test system: UACC-257 melanoma
CAKI-1 renal = test system: CAKI-1 renal
SW-620 colon = test system: SW-620 colon
DLD-1 colon = test system: DLD-1 colon
OVCAR-8 ovarian = test system: OVCAR-8 ovarian
RXF 393 renal = test system: RXF 393 renal
SF-539 CNS = test system: SF-539 CNS
RPMI-8226 leukemia = test system: RPMI-8226 leukemia
HCC-2998 colon = test system: HCC-2998 colon
MOLT-4 leukemia = test system: MOLT-4 leukemia
SF-268 CNS = test system: SF-268 CNS
SK-OV-3 ovarian = test system: SK-OV-3 ovarian
KM12 colon = test system: KM12 colon
NCI-H460 lung = test system: NCI-H460 lung
UO-31 renal = test system: UO-31 renal
NCI-H522 lung = test system: NCI-H522 lung
HCT-116 colon = test system: HCT-116 colon
OVCAR-5 ovarian = test system: OVCAR-5 ovarian
K-562 leukemia = test system: K-562 leukemia
HL-60(TB) leukemia = test system: HL-60(TB) leukemia
COLO 205 colon = test system: COLO 205 colon
OVCAR-3 ovarian = test system: OVCAR-3 ovarian
DMS 273 small cell lung = test system: DMS 273 small cell lung
XF 498 CNS = test system: XF 498 CNS
SK-MEL-2 melanoma = test system: SK-MEL-2 melanoma

Measured: TGI

C[C@H](OCc1ccccc1)C(=O)N1CCS(=O)(=O)N2CCC[C@H]2C1=O
> 100 µM: MALME-3M melanoma | HOP-18 NSCLC | IGROV1 ovarian | DMS 114 small cell lung | LOX IMVI melanoma | KM20L2 colon | A549 NSCLC | ACHN renal | HT29 colon | OVCAR-4 ovarian | CCRF-CEM leukemia | TK-10 renal | A498 renal | SK-MEL-28 melanoma | HCT-15 colon | HOP-62 NSCLC | NCI-H226 lung | SK-MEL-5 melanoma | SF-295 CNS | SN12C renal | HOP-92 NSCLC | SR leukemia | M19-MEL melanoma | SNB-19 CNS | EKVX NSCLC | U251 CNS | NCI-H23 lung | SNB-78 CNS | 786-0 renal | M14 melanoma | RXF-631 renal | SNB-75 CNS | LXFL 529 NSCLC | UACC-62 melanoma | UACC-257 melanoma | CAKI-1 renal | SW-620 colon | DLD-1 colon | OVCAR-8 ovarian | RXF 393 renal | SF-539 CNS | RPMI-8226 leukemia | HCC-2998 colon | MOLT-4 leukemia | SF-268 CNS | SK-OV-3 ovarian | KM12 colon | NCI-H460 lung | UO-31 renal | NCI-H522 lung | HCT-116 colon | OVCAR-5 ovarian | K-562 leukemia | HL-60(TB) leukemia | COLO 205 colon | OVCAR-3 ovarian

CCCNC1=C(C(=O)OCC)C(=O)CO1
> 100 µM: MALME-3M melanoma | IGROV1 ovarian | DMS 114 small cell lung | LOX IMVI melanoma | KM20L2 colon | A549 NSCLC | ACHN renal | HT29 colon | OVCAR-4 ovarian | CCRF-CEM leukemia | TK-10 renal | A498 renal | SK-MEL-28 melanoma | HCT-15 colon | DMS 273 small cell lung | NCI-H226 lung | SK-MEL-5 melanoma | SF-295 CNS | SN12C renal | HOP-92 NSCLC | SR leukemia | M19-MEL melanoma | SNB-19 CNS | EKVX NSCLC | U251 CNS | NCI-H23 lung | SNB-78 CNS | 786-0 renal | M14 melanoma | RXF-631 renal | XF 498 CNS | SNB-75 CNS | LXFL 529 NSCLC | UACC-62 melanoma | UACC-257 melanoma | CAKI-1 renal | SW-620 colon | DLD-1 colon | OVCAR-8 ovarian | RXF 393 renal | SF-539 CNS | RPMI-8226 leukemia | HCC-2998 colon | MOLT-4 leukemia | SF-268 CNS | NCI-H460 lung | UO-31 renal | HCT-116 colon | SK-MEL-2 melanoma | OVCAR-5 ovarian | K-562 leukemia | HL-60(TB) leukemia | OVCAR-3 ovarian

Reference: PubChem BioAssay (NCI)
